Laboratory results as given in patent publication US11583533B2, “Topical pharmaceutical compositions comprising 2-[3-[4-amino-3-(2-fluoro-4-phenoxy-phenyl)-1H-pyrazolo[3,4-d]pyrimidin-1-yl]piperidine-1-carbonyl]-4,4-dimethylpent-2-enenitrile” (Principia Biopharma Inc., priority 2020, dated 2023).

Assay: Skin penetration of Compound (I) into the dermis and epidermis
Type: in vitro ADME
Conditions: human abdominal skin from elective surgery (500±50 μm)
Protocol: Using skin from one donor (n=4-5 replicates per condition) and a receptor solution comprising phosphate/citrate buffer pH 5.6 with 0.01% Brij 98, a dose of 10 mg/cm^2 Compound (I) was applied in the form of one of three 2% Compound (I) gel formulations comprising one of crystalline Form (I), amorphous Compound (I), or crystalline Form (II). Samples were collected every 3 hours for 24 hours. Prior to separating the epidermis and dermis, the residual formulation was removed from the surface of the skin, and then the skin surface was tape stripped up to 5 times to remove residual formulation and the top of the skin surface layers (stratum corneum). The dermis and epidermis were separated by heating to 60° C. for 2 minutes, followed by manual separation using forceps. The extraction fluid used was 90:10 acetonitrile:water with 0.1% BHT. Epidermis and dermis samples were homogenized, then shaken at 130 RPM overnight, and transferred to lo-bind DW96 plates.

## CC(C)(C)C=C(C#N)C(=O)N1CCCC(n2nc(-c3ccc(Oc4ccccc4)cc3F)c3c(N)ncnc32)C1 (stereo not shown) [Compound (I), 2-(3-(4-amino-3-(2-fluoro-4-phenoxyphenyl)-1H-pyrazolo[3,4-d]pyrimidin-1-yl)piperidine-1-carbonyl)-4,4-dimethylpent-2-enenitrile]
  ability to penetrate skin into the dermis and epidermis: able to penetrate
